How the values were obtained:
[1] = Optical characteristics of pH-sensitive fluorescent probes (absorption, emission, fluorescence quantum yield); assay type: physicochemical; details: for Φfl (fluorescence quantum yield): fluorescein (Φfl = 0.85) as reference
Experimental: (§1) Optical characteristics of the compounds of the present invention, 3a (H2NBDP-PH), 3b (DiMeNBDP-PH), and 3c (DiEtNBDP-PH), and a compound not having an anilinic amino group as a pH detecting moiety, 3d (PhBDP-PH), as a control compound were measured.

[2] = pH-dependent change of fluorescence quantum yield and pKa by Henderson-Hasselbach equation; assay type: physicochemical; details: for pKa: Determined with Henderson-Hasselbach equation using fluorescence quantum yield; for pH-dependency of fluorescence intensity (fluorescence quantum yield): FIG. 1
Experimental: as §1

[3] = N-protonated form, pH 1.47 for 3a, pH 2.00 for 3b and 3c
[4] = control compound without anilinic amino group, no form or pH given

| Compound | Stokes' shift ([1]; N-nonprotonated form, pH 9.00) [nm] | ε ([1]; N-nonprotonated form, pH 9.00) [M⁻¹ cm⁻¹] | λabs, max ([1]; N-nonprotonated form, pH 9.00) [nm] | λem, max ([1]; N-nonprotonated form, pH 9.00) [nm] | Φfl (fluorescence quantum yield) ([1]; N-nonprotonated form, pH 9.00) | Stokes' shift [1, 3] [nm] | ε [1, 3] [M⁻¹ cm⁻¹] | λabs, max [1, 3] [nm] | λem, max [1, 3] [nm] | Φfl (fluorescence quantum yield) [1, 3] | pKa [2] | pH-dependency of fluorescence intensity (fluorescence quantum yield) [2] | Stokes' shift [1, 4] [nm] | ε [1, 4] [M⁻¹ cm⁻¹] | λabs, max [1, 4] [nm] | λem, max [1, 4] [nm] | Φfl (fluorescence quantum yield) [1, 4] |
| --- | --- | --- | --- | --- | --- | --- | --- | --- | --- | --- | --- | --- | --- | --- | --- | --- | --- |
| CC1=C(CCC(=O)O)C(C)=[N+]2C1=C(c1ccc(N)cc1)c1c(C)c(CCC(=O)O)c(C)n1[B-]2(F)F [Compound 3a, 1,3,5,7-Tetramethyl-2,6-bis-(2-carboxyethyl)-8-(4-aminophenyl)-4,4-difluoro-4-bora-3a,4a-diaza-s-indacene] | 17 | 71100 | 519 | 536 | 0.002 | 13 | 72100 | 520 | 533 | 0.55 | 3.8 | pH-dependency following the Henderson-Hasselbach equation | – | – | – | – | – |
| CC1=C(CCC(=O)O)C(C)=[N+]2C1=C(c1ccc(N(C)C)cc1)c1c(C)c(CCC(=O)O)c(C)n1[B-]2(F)F [Compound 3b, 1,3,5,7-Tetramethyl-2,6-bis-(2-carboxyethyl)-8-[4-(N,N-dimethylamino)phenyl]-4,4-difluoro-4-bora-3a,4a-diaza-s-indacene] | 16 | 62300 | 519 | 535 | 0.002 | 14 | 58900 | 521 | 535 | 0.56 | 4.3 | pH-dependency following the Henderson-Hasselbach equation | – | – | – | – | – |
| CCN(CC)c1ccc(C2=C3C(C)=C(CCC(=O)O)C(C)=[N+]3[B-](F)(F)n3c(C)c(CCC(=O)O)c(C)c32)cc1 [Compound 3c, 1,3,5,7-Tetramethyl-2,6-bis-(2-carboxyethyl)-8-[4-(N,N-diethylamino)phenyl]-4,4-difluoro-4-bora-3a,4a-diaza-s-indacene] | 17 | 64400 | 519 | 536 | 0.002 | 13 | 64100 | 521 | 534 | 0.56 | 6.0 | pH-dependency following the Henderson-Hasselbach equation | – | – | – | – | – |
| CC1=C(CCC(=O)O)C(C)=[N+]2C1=C(c1ccccc1)c1c(C)c(CCC(=O)O)c(C)n1[B-]2(F)F [Compound 3d, 1,3,5,7-Tetramethyl-2,6-bis-(2-carboxyethyl)-8-phenyl-4,4-difluoro-4-bora-3a,4a-diaza-s-indacene, reference compound] | – | – | – | – | – | – | – | – | – | – | – | – | 14 | 73200 | 520 | 534 | 0.56 |

From patent publication US8258171B2, “pH-sensitive fluorescent probe” (The University of Tokyo, priority 2006, dated 2012)
